Patent US20240408117A1, “COMPOSITIONS AND METHODS FOR TREATING HEMIPLEGIC MIGRAINE” (Schedule 1 Therapeutics, Inc., priority 2023, published 2024)
≈ marks a conversion by molar mass, not a printed value.

Experiments:
[1] = Accelerated and long-term stability studies of cannabidiol (ICH Q1A (R2)); type: physicochemical; details: batches stored per ICH Q1A (R2)
Protocol: Manufacturing of all lots of cannabidiol was conducted in a manner consistent with Good Manufacturing Practices and ICH Q7 regulations. Consistent with these principles, and in direct regard to production of cannabidiol, the manufacturer conducted accelerated stability studies utilizing batches of cannabidiol manufactured at full scale. […]. In addition, the manufacturer has batches of cannabidiol on a long-term stability study. […] For these batches, the data and results from these stability studies are in compliance with documentation procedures.

[2] = Solubility of cannabidiol in solvents, oils and buffers at 25° C.; type: physicochemical
[3] = OEL of cannabidiol; details: estimated
[4] = Hygroscopicity of dronabinol by thermogravimetric analysis; type: physicochemical
[5] = Solubility of dronabinol at 25° C.; type: physicochemical; details: for solubility: organic solvent or mixture
Protocol: Solubility at 25° C.: Dronabinol is immiscible in water.

With `C=C(C)[C@@H]1CCC(C)=C[C@H]1c1c(O)cc(CCCCC)cc1O` [Cannabidiol, 2-[(1R,6R)-3-methyl-6-prop-1-en-2-ylcyclohex-2-en-1-yl]-5-pentylbenzene-1,3-diol] as the molecule, how does the “Stability (impurity levels, assay)” value [1] read?
Its value is “no trends towards increased impurity levels or decrease in assay”.

And the solubility ([2]; Britton Robinson Buffer, aqueous buffer, BRB pH 6, 25° C.)?
The solubility was 0.00013 mg/mL (≈ 0.000413 mM).

And the solubility ([2]; Britton Robinson Buffer, aqueous buffer, BRB pH 8, 25° C.)?
Its solubility is 0.00012 mg/mL (≈ 0.000382 mM).

And the solubility ([2]; Britton Robinson Buffer, pH 4, aqueous buffer, BRB pH4, 25° C.)?
The solubility was 0.00011 mg/mL (≈ 0.00035 mM).

What about the solubility ([2]; Britton Robinson buffer, aqueous buffer, BRB pH 10, 25° C.) of the same molecule?
The solubility was 0.00013 mg/mL (≈ 0.000413 mM).

And the solubility ([2]; Britton Robinson buffer, aqueous buffer, BRB pH 11, 25° C.)?
Its solubility is 0.00041 mg/mL (≈ 0.0013 mM).

And the Solubility ([2]; Heptane, 25° C.)?
The Solubility was 64.6 mg/mL (≈ 205 mM).

What about the Solubility ([2]; Isooctane, 25° C.) of the same molecule?
Its Solubility is 43.9 mg/mL (≈ 140 mM).

And the Solubility ([2]; Water, 25° C.)?
Its Solubility is less than 0.1 mg/mL.

What about the solubility ([2]; Water, 25° C.) of the same molecule?
Its solubility is less than 0.1 mg/mL.

And the solubility ([2]; aqueous buffer, BRB (Britton Robinson Buffer) pH 2, 25° C.)?
The solubility was 0.00011 mg/mL (≈ 0.00035 mM).

And the solubility ([2]; aqueous buffer, Britton Robinson Buffers)?
The solubility was less than 0.1 mg/mL.

And the solubility ([2]; aqueous buffer, Phosphate Buffer pH 6.5 without SLS, 25° C.)?
The solubility was 0.00015 mg/mL (≈ 0.000477 mM).

And the solubility ([2]; aqueous with cosolvent or surfactant or cyclodextrin, Cremophor EL, 25° C.)?
Its solubility is greater than 100 mg/mL.

What about the solubility ([2]; aqueous with cosolvent or surfactant or cyclodextrin, Tween 80, 25° C.) of the same molecule?
Its solubility is greater than 100 mg/mL.

What about the Solubility ([2]; n-Decane, 25° C.) of the same molecule?
The Solubility was 36.8 mg/mL (≈ 117 mM).

What about the solubility ([2]; oil or lipid, Dodecane Oil, 25° C.) of the same molecule?
The solubility was 28 mg/mL (≈ 89 mM).

And the solubility ([2]; oil or lipid, Mineral Oil, 25° C.)?
Its solubility is 16 mg/mL (≈ 50.9 mM).

What about the solubility ([2]; oil or lipid, Sesame Oil, 25° C.) of the same molecule?
Its solubility is 216 mg/mL (≈ 687 mM).

What about the solubility ([2]; oil or lipid, Sunflower Seed Oil, 25° C.) of the same molecule?
Its solubility is greater than 100 mg/mL.

And the solubility ([2]; organic solvent or mixture, 1,2-Dimethyloxyethane, 25° C.)?
The solubility was greater than 100 mg/mL.

What about the solubility ([2]; organic solvent or mixture, 1,4-dioxane, 25° C.) of the same molecule?
Its solubility is greater than 100 mg/mL.

And the solubility ([2]; organic solvent or mixture, 1-Propanol, 25° C.)?
The solubility was greater than 100 mg/mL.

What about the solubility ([2]; organic solvent or mixture, 2-Propanol (IPA), 25° C.) of the same molecule?
The solubility was greater than 100 mg/mL.

And the solubility ([2]; organic solvent or mixture, 2-butanone, 25° C.)?
The solubility was greater than 100 mg/mL.

And the solubility ([2]; organic solvent or mixture, 2-methyl tetrahydrofuran (2-MeTHF), 25° C.)?
The solubility was greater than 100 mg/mL.

And the solubility ([2]; organic solvent or mixture, 2-methyl tetrahydrofuran saturated with water, 25° C.)?
The solubility was greater than 100 mg/mL.

What about the solubility ([2]; organic solvent or mixture, Acetone, 25° C.) of the same molecule?
The solubility was greater than 100 mg/mL.

And the solubility ([2]; organic solvent or mixture, Acetonitrile (ACN), 25° C.)?
Its solubility is greater than 100 mg/mL.

And the solubility ([2]; organic solvent or mixture, Anisole, 25° C.)?
Its solubility is greater than 100 mg/mL.

And the solubility ([2]; organic solvent or mixture, Chloroform, 25° C.)?
The solubility was greater than 100 mg/mL.

And the solubility ([2]; organic solvent or mixture, Cumene, 25° C.)?
Its solubility is greater than 100 mg/mL.

And the solubility ([2]; organic solvent or mixture, Cyclohexane, 25° C.)?
Its solubility is greater than 100 mg/mL.

What about the solubility ([2]; organic solvent or mixture, DMSO, 25° C.) of the same molecule?
The solubility was greater than 100 mg/mL.

And the solubility ([2]; organic solvent or mixture, Dichloromethane, 25° C.)?
Its solubility is greater than 100 mg/mL.

What about the solubility ([2]; organic solvent or mixture, Diethyl Ether, 25° C.) of the same molecule?
Its solubility is greater than 100 mg/mL.

What about the solubility ([2]; organic solvent or mixture, Ethanol (EtOH), 25° C.) of the same molecule?
Its solubility is greater than 100 mg/mL.

And the solubility ([2]; organic solvent or mixture, Ethyl Acetate (EtOAc), 25° C.)?
Its solubility is greater than 100 mg/mL.

What about the solubility ([2]; organic solvent or mixture, Ethyl Formate, 25° C.) of the same molecule?
The solubility was greater than 100 mg/mL.

And the solubility ([2]; organic solvent or mixture, Isobutanol, 25° C.)?
Its solubility is greater than 100 mg/mL.

What about the solubility ([2]; organic solvent or mixture, Isopropyl Acetate (IPAc), 25° C.) of the same molecule?
The solubility was greater than 100 mg/mL.

What about the solubility ([2]; organic solvent or mixture, Methanol (MeOH), 25° C.) of the same molecule?
The solubility was greater than 100 mg/mL.

What about the solubility ([2]; organic solvent or mixture, N-methyl-pyrrolidone, 25° C.) of the same molecule?
The solubility was greater than 100 mg/mL.

And the solubility ([2]; organic solvent or mixture, Tetrahydrofuran, 25° C.)?
Its solubility is greater than 100 mg/mL.

And the solubility ([2]; organic solvent or mixture, Toluene, 25° C.)?
The solubility was greater than 100 mg/mL.

What about the solubility ([2]; organic solvent or mixture, all other solvents examined with the exception of heptane, n-decane and isooctane) of the same molecule?
The solubility was greater than 100 mg/mL.

And the solubility ([2]; organic solvent or mixture, methylcyclohexane, 25° C.)?
Its solubility is greater than 100 mg/mL.

And the solubility ([2]; organic solvent or mixture, n-hexane, 25° C.)?
The solubility was greater than 100 mg/mL.

And the solubility ([2]; organic solvent or mixture, p-Xylene, 25° C.)?
The solubility was greater than 100 mg/mL.

What about the solubility ([2]; organic solvent or mixture, tert-Butyl methyl ether (MTBE), 25° C.) of the same molecule?
Its solubility is greater than 100 mg/mL.

What about the solubility ([2]; phosphate buffer with 0.4% SLS, aqueous with cosolvent or surfactant or cyclodextrin, Phosphate Buffer pH 6.5 with 0.4% SLS, 25° C.) of the same molecule?
The solubility was 0.00012 mg/mL (≈ 0.000382 mM).

And the OEL [3]?
Its OEL is 5-20 μg/m^3.

Which Hygroscopicity [4] does the source give for `CCCCCc1cc(O)c2c(c1)OC(C)(C)[C@@H]1CCC(C)=C[C@@H]21` [Dronabinol, 2-(6aR,10aR) 6a,7,8,10a-tetrahydro-6,6,9-trimethyl-3-pentyl-6H-dibenzo[b,d]pyran-l-ol] here?
The Hygroscopicity was “non-hygroscopic”.

What about the weight change ([4]; approximately 140° C.) of the same molecule?
The weight change was “less than 0.1%”.

What about the Solubility ([5]; Water) of the same molecule?
Its Solubility is “immiscible”.

And the solubility ([5]; Acetone)?
The solubility was 100 mg/mL (≈ 318 mM).

And the solubility ([5]; Ethanol)?
Its solubility is 100 mg/mL (≈ 318 mM).
